Measured values reported in US20240391954A1, “MC4R AGONIST PEPTIDES” (The Regents of the University of Michigan, priority 2021, published 2024).
Where two headings read alike, the source gives them in different places. Positions of bridges follow the written chain, without caps; N, C: chain ends. Non-standard residues stand in square brackets, D forms with d. Residues, ends and D or L forms follow the SMILES beside them. dPhe(4-Br) = N[C@H](Cc1ccc(Br)cc1)C(=O)O; 2Nal = N[C@@H](Cc1ccc2ccccc2c1)C(=O)O; d2Nal = N[C@H](Cc1ccc2ccccc2c1)C(=O)O; d(αMeF) = C[C@@](N)(Cc1ccccc1)C(=O)O; hCit = NC(=O)NCCCC[C@H](N)C(=O)O; Cit = NC(=O)NCCC[C@H](N)C(=O)O; Nle = CCCC[C@H](N)C(=O)O; Aib = CC(C)(N)C(=O)O

Key:
human MC4R = target: T1, human MC4R (Homo sapiens, UniProt P32245); experiment: split-luciferase cAMP sensor assay, agonist mode (measurement window 1), hMC4R; format: cell-based; conditions: for Emax: read-out: MC4R cAMP % max activation; for EC50: read-out: MC4R cAMP EC50
T1 construct: host or cells: HEK-293 cells stably expressing the GScAMP22F split-luciferase cAMP sensor and hMC4R, G418 selection
T1 sequence (P32245 whole entry): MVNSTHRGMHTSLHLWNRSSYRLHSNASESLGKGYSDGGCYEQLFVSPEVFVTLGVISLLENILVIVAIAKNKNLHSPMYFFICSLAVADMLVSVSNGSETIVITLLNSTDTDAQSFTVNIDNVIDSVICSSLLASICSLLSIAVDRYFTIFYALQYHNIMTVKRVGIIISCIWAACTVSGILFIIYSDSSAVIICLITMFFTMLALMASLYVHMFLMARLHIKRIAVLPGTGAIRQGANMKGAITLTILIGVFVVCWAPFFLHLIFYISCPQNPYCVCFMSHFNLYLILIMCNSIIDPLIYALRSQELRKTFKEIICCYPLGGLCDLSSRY
Protocol: (§1) The stable cell lines were grown and maintained in selection media consisting of Dulbecco's modified Eagle media (DMEM) with 4.5 g/l D-glucose, and 4 mM L-glutamine (Thermo Fisher Scientific, Waltham, MA), supplemented with 10% fetal bovine serum, 100 units/ml penicillin, 100 μg/ml streptomycin, 2.5 μg/ml amphotericin B, 200 μg/ml hygromycin B (for positive selection of the GScAMP22f luciferase reporter), and Geneticin™ (G418) 700 μg/ml (for MC3R or MC4R selection). Actual serum concentration during the assay is estimated to be about 1%. Cell line identity is routinely verified by qPCR and MC3R-and MC4R-specific oligonucleotides.
(§2) The assay for the determination of the cAMP response in live cells was described previously. […] Cells were seeded at a density of 20,000 cells per well using 384-well poly-D lysine-coated, clear bottom, and black-wall assay plates (Corning Inc. Corning, NJ). Cells were allowed to attach to the plates for 18 to 24 h after which growth media was removed and 20 μl of 4% D-luciferin (Promega) in CO2 independent, serum-free medium (Thermo Fisher Scientific) was added to each well. […] Intracellular cAMP levels were measured using an FDSS 7000EX Functional Drug Screening System (Hamamatsu Photonics, Hamamatsu, Japan) in the Center for Chemical Genomics at the Life Sciences Institute. This instrument allowed the in-line addition of test-peptides and receptor agonists while simultaneously acquiring the luminescence signal from live cells. […] A submaximal forskolin (20 μM) concentration was also included to serve as a normalization reference to account for cell number variations and differences in assay transducer efficiency between cell lines.
(§3) With this set up it was possible to evaluate the direct effect of the test-peptides on the MC3R and MC4R cell lines during measurement window 1, while the antagonist profile in the presence of EC90 α-MSH was determined on measurement window 2. […] EC50 or IC50 potency values were determined by non-linear regression by fitting the data to a sigmoid four-parameter variable slope model using the GraphPad Prism version 8.4 software package (San Diego CA).

human MC3R = target: T2, human MC3R (Homo sapiens, UniProt P41968); experiment: split-luciferase cAMP sensor assay, agonist mode (measurement window 1), hMC3R; format: cell-based; conditions: for Emax: read-out: MC3R cAMP % max activation; for MC4R selectivity vs MC3R: MC4R versus MC3R; for EC50: read-out: MC3R cAMP EC50
T2 construct: expressed in transfected cells; host or cells: HEK-293 cells stably expressing the GScAMP22F split-luciferase cAMP sensor (parent reporter line from Promega); MC3R clone generated in-house, G418 selection
T2 sequence (P41968 whole entry): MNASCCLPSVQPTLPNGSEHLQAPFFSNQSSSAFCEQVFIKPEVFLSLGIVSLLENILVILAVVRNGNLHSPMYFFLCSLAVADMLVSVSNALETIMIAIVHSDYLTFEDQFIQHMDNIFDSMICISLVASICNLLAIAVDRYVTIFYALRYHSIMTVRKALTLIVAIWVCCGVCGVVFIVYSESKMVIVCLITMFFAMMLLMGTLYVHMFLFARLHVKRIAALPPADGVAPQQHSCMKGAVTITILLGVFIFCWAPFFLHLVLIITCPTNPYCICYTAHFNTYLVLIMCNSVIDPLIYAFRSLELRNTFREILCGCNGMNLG
Protocol: as §1, §2, §3

[1] = % maximal activation, agonist mode
[2] = HEK-293 cells stably expressing hMC4R, agonist mode
[3] = agonist mode, hMC3R stable cell line
[4] = agonist mode, hMC4R stable cell line

Structure (SMILES)	Emax (human MC4R; [1]) [%]	Emax (human MC3R; [3]) [%]	MC4R selectivity vs MC1R (human MC4R)	MC4R selectivity vs MC3R (human MC4R)	Emax (human MC4R; [4]) [%]	other results
CC(=O)N[C@@H](CCCNC(=N)N)C(=O)N[C@H]1CSSC[C@@H](C(N)=O)NC(=O)[C@H](Cc2c[nH]c3ccccc23)NC(=O)[C@H](CCCNC(=N)N)NC(=O)[C@@H](Cc2ccccc2)NC(=O)[C@H](CCCNC(=N)N)NC(=O)CNC1=O [CTX-1293, Arg-cyclo(Cys-Gly-Arg-D-Phe-Arg-Trp-Cys)] (Ac-RCGR[dF]RWC-NH2; disulfide 2-8)	87	–	–	–	–	EC50 (human MC4R; [2]): 0.25 nM
CC(=O)N[C@@H](CCCNC(=N)N)C(=O)N[C@H]1CSSC[C@@H](C(N)=O)NC(=O)[C@@H](Cc2ccc3ccccc3c2)NC(=O)[C@H](CCCNC(=N)N)NC(=O)[C@@H](Cc2ccc(Br)cc2)NC(=O)[C@H](CCCNC(=N)N)NC(=O)[C@@H](C)NC1=O [CTX-1254, Arg-cyclo(Cys-D-Ala-Arg-D-Phe(4-Br)-Arg-D-Nal(2′)-Cys)] (Ac-RC[dA]R[dPhe(4-Br)]R[d2Nal]C-NH2; disulfide 2-8)	–	5.5	0.26	2.19	22	–
CC(=O)N[C@@H](CCCNC(=N)N)C(=O)N[C@H]1CSSC[C@@H](C(N)=O)NC(=O)[C@@H](Cc2c[nH]c3ccccc23)NC(=O)[C@H](CCCNC(=N)N)NC(=O)[C@@](C)(Cc2ccccc2)NC(=O)[C@H](CCCNC(=N)N)NC(=O)[C@@H](C)NC1=O [CTX-1240, Arg-cyclo(Cys-D-Ala-Arg-aMe-D-Phe-Arg-D-Trp-Cys)] (Ac-RC[dA]R[d(αMeF)]R[dW]C-NH2; disulfide 2-8)	–	–	0.46	0.41	–	MC3R cAMP % max activation (human MC3R; [3]): (27%); MC4R cAMP % max activation (human MC4R; [4]): (81%)
CC(=O)N[C@@H](CCCNC(=N)N)C(=O)N[C@H]1CSSC[C@@H](C(N)=O)NC(=O)[C@@H](Cc2c[nH]c3ccccc23)NC(=O)[C@H](CCCNC(=N)N)NC(=O)[C@@H](Cc2ccc(Br)cc2)NC(=O)[C@@H](CCCNC(=N)N)NC(=O)[C@@H](C)NC1=O [CTX-1250, Arg-cyclo(Cys-D-Ala-D-Arg-D-Phe(4-Br)-Arg-D-Trp-Cys)] (Ac-RC[dA][dR][dPhe(4-Br)]R[dW]C-NH2; disulfide 2-8 (inferred))	–	10	1.06	11	8.7	–
CC(=O)N[C@@H](CCCNC(=N)N)C(=O)N[C@H]1CSSC[C@@H](C(N)=O)NC(=O)[C@@H](Cc2c[nH]c3ccccc23)NC(=O)[C@H](CCCNC(=N)N)NC(=O)[C@@H](Cc2ccccc2)NC(=O)[C@H](CCCNC(N)=O)NC(=O)[C@H](C)NC1=O [CTX-1288, Arg-cyclo(Cys-Ala-Cit-D-Phe-Arg-D-Trp-Cys)] (Ac-RCA[Cit][dF]R[dW]C-NH2; disulfide 2-8)	87	–	–	–	–	–
CCCC[C@H](NC(C)=O)C(=O)N[C@H]1CSSC[C@@H](C(=O)N[C@@H](CCCNC(=N)N)C(=O)N[C@@H](Cc2ccccc2)C(=O)NCC(N)=O)NC(=O)[C@@H](Cc2c[nH]c3ccccc23)NC(=O)[C@H](CCCNC(=N)N)NC(=O)[C@H](Cc2ccc3ccccc3c2)NC(=O)[C@H](Cc2c[nH]cn2)NC1=O [CTX-2128, Nle-cyclo(Cys-His-Nal(2′)-Arg-D-Trp-Cys)-Arg-Phe-Gly] (Ac-[Nle]CH[2Nal]R[dW]CRFG-NH2; disulfide 2-7 (inferred))	87	–	–	–	–	Emax (human MC3R; [1]): 99%; MC4R selectivity vs MC3R (human MC3R): 0.01
CC(=O)N[C@H]1CSSC[C@@H](C(N)=O)NC(=O)[C@H](Cc2c[nH]c3ccccc23)NC(=O)[C@H](CCCNC(=N)N)NC(=O)[C@@H](Cc2ccccc2)NC(=O)[C@H](Cc2c[nH]cn2)NC(=O)CNC1=O [CTX-1206, cyclo(Cys-Gly-His-D-Phe-Arg-Trp-Cys)] (Ac-CGH[dF]RWC-NH2; disulfide 1-7 (inferred))	101	–	–	–	–	Emax (human MC3R; [1]): 94%; EC50 (human MC3R; HEK-293 cells stably expressing hMC3R, agonist mode): 12 nM; MC4R selectivity vs MC3R (human MC3R): 23; EC50 (human MC4R; [2]): 0.52 nM
COc1ccc(C[C@H]2NC(=O)[C@H](CCCNC(N)=O)NC(=O)C(C)(C)NC(=O)[C@@H](NC(=O)[C@H](CCCNC(=N)N)NC(C)=O)CSSC[C@@H](C(N)=O)NC(=O)[C@@H](Cc3c[nH]c4ccccc34)NC(=O)[C@H](CCCNC(=N)N)NC2=O)cc1 [CTX-1600, Arg-cyclo(Cys-Aib-Cit-D-Tyr(4-OMe)-Arg-D-Trp-Cys)] (Ac-RC[Aib][Cit][dY](Me)R[dW]C-NH2; disulfide 2-8)	–	–	>70	>70	58	EC50 (human MC3R; [3]): > 10000 nM
CCCC[C@H](NC(=O)[C@H](CCCNC(=N)N)NC(C)=O)C(=O)N[C@H]1CSSC[C@@H](C(N)=O)NC(=O)[C@H](Cc2c[nH]c3ccccc23)NC(=O)[C@H](CCCNC(=N)N)NC(=O)[C@@H](Cc2ccccc2)NC(=O)[C@H](CCCCNC(N)=O)NC1=O [CTX-1618, Arg-Nle-cyclo(Cys-homo-Cit-D-Phe-Arg-Trp-Cys)] (Ac-R[Nle]C[hCit][dF]RWC-NH2; disulfide 3-8 (inferred))	94	–	–	–	–	EC50 (human MC4R; [2]): 1.8 nM
CC(=O)N[C@@H](CCCNC(=N)N)C(=O)N[C@H]1CSSC[C@@H](C(=O)N[C@@H](CCCNC(=N)N)C(=O)N[C@@H](Cc2ccccc2)C(N)=O)NC(=O)[C@@H](Cc2c[nH]c3ccccc23)NC(=O)[C@H](CCCNC(=N)N)NC(=O)[C@@H](Cc2ccc(Br)cc2)NC(=O)[C@H](CCCNC(=N)N)NC(=O)[C@@H](C)NC1=O [CTX-1220, Arg-cyclo(Cys-D-Ala-Arg-D-Phe(4-Br)-Arg-D-Trp-Cys)-Arg-Phe] (Ac-RC[dA]R[dPhe(4-Br)]R[dW]CRF-NH2; disulfide 2-8 (inferred))	–	21	1.53	3.82	76	–
CC(=O)N[C@@H](CCCNC(=N)N)C(=O)N[C@H]1CSSC[C@@H](C(N)=O)NC(=O)[C@H](Cc2c[nH]c3ccccc23)NC(=O)[C@H](CCCNC(=N)N)NC(=O)[C@H](Cc2ccccc2)NC(=O)[C@H](Cc2c[nH]cn2)NC(=O)[C@@H](C)NC1=O [CTX-1213, Arg-cyclo(Cys-D-Ala-His-Phe-Arg-Trp-Cys)]	104	–	–	–	–	Emax (human MC3R; [1]): 97%
CC(=O)N[C@@H](CCCNC(=N)N)C(=O)N[C@H]1CSSC[C@@H](C(N)=O)NC(=O)[C@H](Cc2c[nH]c3ccccc23)NC(=O)[C@H](CCCNC(=N)N)NC(=O)[C@@H](Cc2ccc3ccccc3c2)NC(=O)[C@@H]2CCCN2C(=O)[C@@H](C)NC1=O [CTX-2203] (Ac-RC[dA]P[d2Nal]RWC-NH2; disulfide 2-8 (inferred))	–	1	–	2.45	1.4	EC50 (human MC3R; [3]): 29 nM; EC50 (human MC4R; [4]): 12 nM
COc1ccc(C[C@H]2NC(=O)[C@H](CCCNC(=N)N)NC(=O)CNC(=O)[C@@H](NC(C)=O)CSSC[C@@H](C(N)=O)NC(=O)[C@H](Cc3ccccc3)NC(=O)[C@H](CCCNC(=N)N)NC2=O)cc1 [CTX-1641, cyclo(Cys-Gly-Arg-D-Tyr(4-OMe)-Arg-Phe-Cys)] (Ac-CGR[dY](Me)RFC-NH2; disulfide 1-7)	–	22	0.28	1.18	104	EC50 (human MC3R; [3]): 52 nM
CCCC[C@H](NC(=O)[C@H](CCCNC(=N)N)NC(C)=O)C(=O)N[C@H]1CSSC[C@@H](C(N)=O)NC(=O)[C@H](Cc2c[nH]c3ccccc23)NC(=O)[C@H](CCCNC(=N)N)NC(=O)[C@@H](Cc2ccccc2)NC(=O)[C@H](CCCNC(N)=O)NC1=O [CTX-1607, Arg-Nle-cyclo(Cys-Cit-D-Phe-Arg-Trp-Cys)] (Ac-R[Nle]C[Cit][dF]RWC-NH2; disulfide 3-8 (inferred))	–	–	–	–	–	Emax (human MC3R; [1]): 47%
CCCC[C@H](NC(=O)[C@H](CCCNC(=N)N)NC(C)=O)C(=O)N[C@H]1CSSC[C@@H](C(N)=O)NC(=O)[C@H](Cc2ccccc2)NC(=O)[C@H](CCCNC(=N)N)NC(=O)[C@@H](Cc2ccccc2)NC(=O)[C@H](Cc2c[nH]cn2)NC1=O [CTX-1625, Arg-Nle-cyclo(Cys-His-D-Phe-Arg-Phe-Cys)] (Ac-R[Nle]CH[dF]RFC-NH2; disulfide 3-8)	101	–	–	–	–	–
